In PubChem BioAssay (NCI):
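Growth conditions: 96-well plates. Treatment: test compound, 48 hours, 5 concentrations. Analysis: linear interpolation between bracketing concentrations; unreached endpoints set to highest concentration. Definition used: TGI = concentration required for complete inhibition of growth.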

Legend:
Test in all cases: NCI-60 cell line screen, 48 h
U251 CNS = tested on: U251 CNS
COLO 205 colon = tested on: COLO 205 colon
SN12C renal = tested on: SN12C renal
A498 renal = tested on: A498 renal
SF-295 CNS = tested on: SF-295 CNS
SF-539 CNS = tested on: SF-539 CNS
SK-MEL-28 melanoma = tested on: SK-MEL-28 melanoma
OVCAR-5 ovarian = tested on: OVCAR-5 ovarian
OVCAR-4 ovarian = tested on: OVCAR-4 ovarian
M14 melanoma = tested on: M14 melanoma

Row | SMILES | TGI (U251 CNS) [µM] | TGI (COLO 205 colon) [µM] | TGI (SN12C renal) [µM] | TGI (A498 renal) [µM] | TGI (SF-295 CNS) [µM] | TGI (SF-539 CNS) [µM] | TGI (SK-MEL-28 melanoma) [µM] | TGI (OVCAR-5 ovarian) [µM] | TGI (OVCAR-4 ovarian) [µM] | TGI (M14 melanoma) [µM]
1 | Cc1cc(C)n(C2OC(CO)C(O)C(O)C2O)c(=S)c1C#N (stereo not given) | > 100 | > 100 | > 100 | > 100 | > 100 | > 100 | > 100 | > 100 | > 100 | > 100
2 | NCCCCC(N)C(=O)NCCNc1ccc(NCCNC(=O)C(N)CCCCN)c2c1C(=O)c1ccccc1C2=O (stereo not given) | > 100 | > 100 | 99.1 | > 100 | > 100 | > 100 | > 100 | > 100 | > 100 | > 100
3 | O=C1O/C(=C(/Cl)c2cccc3ccccc23)c2ccccc21 | > 100 | > 100 | > 100 | > 100 | > 100 | > 100 | > 100 | > 100 | > 100 | > 100
4 | COc1ccc(CCN2CCN(CCc3ccc(OC)cc3)CC2)cc1 | > 100 | > 100 | > 100 | > 100 | > 100 | > 100 | > 100 | > 100 | > 100 | > 100
5 | COc1cc2c(cc1OC)CCc1cc(OC)c(OC)cc1CC2 | > 100 | > 100 | > 100 | > 100 | > 100 | > 100 | > 100 | > 100 | > 100 | > 100
6 | COc1ccc(C2=Nn3c(nnc(Cc4ccc(Cl)cc4)c3=O)SC2)cc1 | > 100 | > 100 | > 100 | > 100 | > 100 | > 100 | > 100 | > 100 | > 100 | 91
7 | COc1cc(O)c2c(c1)OCC(Cc1ccc(O)cc1)C2=O (stereo not given) | > 100 | > 100 | > 100 | > 100 | > 100 | > 100 | > 100 | > 100 | > 100 | > 100
8 | COc1ccccc1N1CCN(CCCN2/C(=C(\O)c3ccccc3)C(=O)c3c(C)cc(C)nc3S2(=O)=O)CC1 | > 100 | > 100 | > 100 | > 100 | > 100 | > 100 | > 100 | > 100 | > 100 | > 100
9 | CC(=O)N[C@@H](Cc1ccc(O)cn1)C(=O)NCc1cccc(Cl)c1 | > 100 | > 100 | > 100 | > 100 | > 100 | > 100 | > 100 | > 100 | > 100 | > 100
10 | O=c1[nH]c(Nc2nc3ccccc3[nH]2)nc2c1CCC2 | > 100 | > 100 | > 100 | > 100 | > 100 | > 100 | > 100 | > 100 | > 100 | > 100
11 | CC(=O)OC1(C)C=CC(=O)C=C1 | 28.7 | > 100 | > 100 | 84 | > 100 | > 100 | 69.6 | > 100 | > 100 | > 100
12 | CC(C)(C)C1=CC(=C(c2ccc(-c3c4nc(c(-c5ccc(C(=C6C=C(C(C)(C)C)C(=O)C(C(C)(C)C)=C6)c6cc(C(C)(C)C)c(O)c(C(C)(C)C)c6)cc5)c5ccc([nH]5)c(-c5ccc(C(=C6C=C(C(C)(C)C)C(=O)C(C(C)(C)C)=C6)c6cc(C(C)(C)C)c(O)c(C(C)(C)C)c6)cc5)c5nc(c(-c6ccc(C(=C7C=C(C(C)(C)C)C(=O)C(C(C)(C)C)=C7)c7cc(C(C)(C)C)c(O)c(C(C)(C)C)c7)cc6)c6ccc3[nH]6)C=C5)C=C4)cc2)c2cc(C(C)(C)C)c(O)c(C(C)(C)C)c2)C=C(C(C)(C)C)C1=O | > 100 | > 100 | > 100 | > 100 | > 100 | > 100 | > 100 | > 100 | > 100 | > 100
13 | CN1C2CCC1CC(CCNC(c1ccccc1)c1ccccc1)C2 (stereo not given) | > 100 | 23.6 | > 100 | 60.5 | 49 | 35.7 | 34.2 | > 100 | > 100 | 24.9
14 | COC(=O)CCc1cc(O)c2c(c1)C(C(=O)OC)C(c1ccc(O)c(O)c1)O2 (stereo not given) | > 95 | > 100 | > 88.7 | > 84.5 | 97 | 32.9 | > 100 | > 100 | > 100 | > 100
15 | Cc1ccc(/C=C2\CCC/C(=C\c3ccc(O)c(CN4CCCCC4)c3)C2=O)cc1 | 37.6 | 44.6 | 26.5 | 13.9 | 26 | 26.6 | > 53.5 | 38.9 | 33 | > 37.7
16 | NC(N)=N/N=C/c1c(-c2cccc([N+](=O)[O-])c2)nc2n1CCS2 | 41.7 | 60.6 | 58.5 | 32.9 | 54.6 | 43.7 | 41.5 | > 100 | 29.8 | 60
17 | CCn1c2ccccc2n2c(=O)c3c(c(C#N)c12)CCCC3 | > 100 | > 100 | > 100 | > 100 | > 100 | > 100 | > 100 | > 100 | > 100 | > 100
18 | COC(=O)C1C(=O)C=CN([C@H](C)c2ccccc2)[C@@H]1Cc1ccc(OC)c(OCc2ccccc2)c1I (stereo not given in full) | 39.7 | 31.7 | 28.8 | 34.8 | 35.5 | 36.4 | > 100 | 92.7 | 79.9 | 30.2
